The source of these data is patent US20220127247A1, “N-(PYRIDIN-2-YL)PYRIDINE-SULFONAMIDE DERIVATIVES AND THEIR USE IN THE TREATMENT OF DISEASE” (NOVARTIS AG, priority 2019, published 2022).

In this assay the target is T1, delF508-CFTR (Homo sapiens, UniProt P13569, DEL508-508).
T1 construct: expressed in transfected cells
Nature of the assay: Measurement of delF508-CFTR-HRP surface expression in CFBE41o- cells. The assay is classed as cell-based. To be noted: for EC50: HRP-tagged delF508-CFTR in CFBE41o- cells, 24 h with compound, luminescence, 10-point curve, top 10 μM; for Emax: efficacy relative to reference compound 3-(6-(1-(2,2-difluorobenzo[d][1,3]dioxol-5-yl)cyclopropane-1-carboxamido)-3-methylpyridin-2-yl)benzoic acid, CFBE41o- cells, 24 h, read-out: DelF508-CFTR-HRP Amax %. The essentials: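 CFBE41o- cells stably expressing delF508-CFTR with HRP in the fourth extracellular loop, induced with 500 ng/mL doxycycline for 48 h, then treated with compound (top 10 μM, 10-point 3-fold) for 24 h at 37° C. Surface HRP detected by luminescence with cell-impermeant substrate; EC50 from logistic fit of triplicates, normalized to lowest concentration.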

Broadly, the EC50 is the concentration that produces a half-maximal response.

T1 sequence (P13569 with tags, fused parts or gaps DEL508-508): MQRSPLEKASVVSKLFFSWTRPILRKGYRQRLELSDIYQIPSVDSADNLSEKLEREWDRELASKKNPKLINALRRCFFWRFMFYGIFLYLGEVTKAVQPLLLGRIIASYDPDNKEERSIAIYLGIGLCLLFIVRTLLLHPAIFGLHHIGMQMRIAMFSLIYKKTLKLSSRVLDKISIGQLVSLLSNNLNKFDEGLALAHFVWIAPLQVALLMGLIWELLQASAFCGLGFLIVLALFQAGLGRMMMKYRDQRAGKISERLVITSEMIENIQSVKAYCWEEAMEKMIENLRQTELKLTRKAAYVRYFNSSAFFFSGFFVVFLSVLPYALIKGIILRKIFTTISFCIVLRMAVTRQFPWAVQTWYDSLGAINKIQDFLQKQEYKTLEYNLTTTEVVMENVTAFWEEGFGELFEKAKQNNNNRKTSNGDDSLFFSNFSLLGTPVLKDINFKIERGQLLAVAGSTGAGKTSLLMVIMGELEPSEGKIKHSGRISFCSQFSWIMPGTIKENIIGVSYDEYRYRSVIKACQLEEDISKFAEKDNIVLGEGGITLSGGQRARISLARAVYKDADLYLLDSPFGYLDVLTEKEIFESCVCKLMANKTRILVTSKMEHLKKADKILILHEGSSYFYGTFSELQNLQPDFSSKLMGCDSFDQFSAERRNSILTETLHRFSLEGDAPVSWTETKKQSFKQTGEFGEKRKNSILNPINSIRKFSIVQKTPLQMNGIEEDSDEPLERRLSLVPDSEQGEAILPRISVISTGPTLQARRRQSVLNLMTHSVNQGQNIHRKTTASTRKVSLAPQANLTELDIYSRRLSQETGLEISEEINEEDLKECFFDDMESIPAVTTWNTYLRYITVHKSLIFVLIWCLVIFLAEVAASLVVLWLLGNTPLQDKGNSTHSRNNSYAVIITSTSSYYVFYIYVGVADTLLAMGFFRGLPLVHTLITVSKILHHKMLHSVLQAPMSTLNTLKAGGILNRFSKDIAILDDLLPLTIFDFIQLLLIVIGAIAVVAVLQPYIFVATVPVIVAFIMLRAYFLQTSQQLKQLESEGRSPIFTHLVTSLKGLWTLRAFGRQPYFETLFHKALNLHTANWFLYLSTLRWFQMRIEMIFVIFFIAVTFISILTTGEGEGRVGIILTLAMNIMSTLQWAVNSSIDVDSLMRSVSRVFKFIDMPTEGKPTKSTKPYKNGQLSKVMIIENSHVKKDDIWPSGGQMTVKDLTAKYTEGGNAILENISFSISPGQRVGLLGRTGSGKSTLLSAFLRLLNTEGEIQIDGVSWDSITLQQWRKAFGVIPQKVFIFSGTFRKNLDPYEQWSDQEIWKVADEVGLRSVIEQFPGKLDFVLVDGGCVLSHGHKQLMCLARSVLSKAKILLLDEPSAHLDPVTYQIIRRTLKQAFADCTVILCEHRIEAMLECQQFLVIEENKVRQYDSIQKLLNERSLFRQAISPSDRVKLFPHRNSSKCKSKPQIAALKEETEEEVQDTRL

With `Cc1ccccc1-c1nc(NS(=O)(=O)c2cccc(N3CCCC(CCC(=O)O)C3)n2)ccc1C(F)(F)F` (stereo not drawn) [Compound 73, 3-(1-(6-(N-(6-(o-tolyl)-5-(trifluoromethyl)pyridin-2-yl)sulfamoyl)pyridin-2-yl)piperidin-3-yl)propanoic acid], the EC50 is 1390 nM. On to `C=Cc1ccccc1-c1nc(NS(=O)(=O)c2cccc(N3CCCC(CCC(=O)O)C3)n2)ccc1C(F)(F)F` (stereo not drawn) [Compound 74, 3-(1-(6-(N-(5-(trifluoromethyl)-6-(2-vinylphenyl)pyridin-2-yl)sulfamoyl)pyridin-2-yl)piperidin-3-yl)propanoic Acid], for which the EC50 worked out at 1090 nM.

In the case of `Cc1ccccc1-c1nc(NS(=O)(=O)c2cccc(N3CCCC(CCCC(=O)O)C3)n2)ccc1C(F)(F)F` (stereo not drawn) [Compound 75, 4-(1-(6-(N-(6-(o-tolyl)-5-(trifluoromethyl)pyridin-2-yl)sulfamoyl)pyridin-2-yl)piperidin-3-yl)butanoic Acid], the concentration for a half-maximal effect (EC50) is 2000 nM. For the molecule `C=Cc1ccccc1-c1nc(NS(=O)(=O)c2cccc(N3CCCC(CCCC(=O)O)C3)n2)ccc1C(F)(F)F` (stereo not drawn) [Compound 76, 4-(1-(6-(N-(5-(trifluoromethyl)-6-(2-vinylphenyl)pyridin-2-yl)sulfamoyl)pyridin-2-yl)piperidin-3-yl)butanoic Acid], the EC50 was determined as 1460 nM.

For `C=Cc1ccccc1-c1nc(NS(=O)(=O)c2cccc(N3CCC[C@H](CC(=O)OCC)C3)n2)ccc1C(F)(F)F` [Compound 77, ethyl (R)-2-(1-(6-(N-(5-(trifluoromethyl)-6-(2-vinylphenyl)pyridin-2-yl)sulfamoyl)pyridin-2-yl)piperidin-3-yl)acetate], the EC50 turned out to be 1450 nM and the Emax is 945%. `C=Cc1ccccc1-c1nc(NS(=O)(=O)c2cccc(N3CCC[C@@H](CC(=O)OC)C3)n2)ccc1C(F)(F)F` [Compound 78, methyl (S)-2-(1-(6-(N-(5-(trifluoromethyl)-6-(2-vinylphenyl)pyridin-2-yl)sulfamoyl)pyridin-2-yl)piperidin-3-yl)acetate]: the EC50 is 1410 nM. Turning to `Cc1ccccc1-c1nc(NS(=O)(=O)c2cccc(N3CCC(CCC(=O)O)CC3)n2)ccc1C(F)(F)F` [Compound 79, 3-(1-(6-(N-(6-(o-tolyl)-5-(trifluoromethyl)pyridin-2-yl)sulfamoyl)pyridin-2-yl)piperidin-4-yl)propanoic Acid], the EC50 came to 2910 nM and the Emax was 330%.

Consider `CCc1ccccc1-c1nc(NS(=O)(=O)c2cccc(N3CCCC(CCC(=O)O)C3)n2)ccc1C(F)(F)F` (stereo not drawn) [Compound 82, 3-(1-(6-(N-(6-(2-ethylphenyl)-5-(trifluoromethyl)pyridin-2-yl)sulfamoyl)pyridin-2-yl)piperidin-3-yl)propanoic Acid], for which the EC50 was 1040 nM. `CCc1ccccc1-c1nc(NS(=O)(=O)c2cccc(N3CCCC(CCCC(=O)O)C3)n2)ccc1C(F)(F)F` (stereo not drawn) [Compound 83, 4-(1-(6-(N-(6-(2-ethylphenyl)-5-(trifluoromethyl)pyridin-2-yl)sulfamoyl)pyridin-2-yl)piperidin-3-yl)butanoic Acid]: the EC50 turned out to be 1450 nM. With `CCc1ccccc1-c1nc(NS(=O)(=O)c2cccc(N3CCC[C@H](CC(=O)O)C3)n2)ccc1C(F)(F)F` [Compound 84, (R)-2-(1-(6-(N-(6-(2-ethylphenyl)-5-(trifluoromethyl)pyridin-2-yl)sulfamoyl)pyridin-2-yl)piperidin-3-yl)acetic Acid], the EC50 worked out at 1540 nM. Same read-out and setting: the figure for `Cc1ccccc1-c1nc(NS(=O)(=O)c2cccc(N3CCCC(CC(=O)O)C3)n2)ccc1C(F)(F)F` (stereo not drawn) [Compound 88, 2-(1-(6-(N-(6-(o-tolyl)-5-(trifluoromethyl)pyridin-2-yl)sulfamoyl)pyridin-2-yl)piperidin-3-yl)acetic Acid] is 2040 nM. Consider `CCN(CCCC(=O)O)c1cccc(S(=O)(=O)Nc2ccc(C(F)(F)F)c(-c3ccccc3C(C)C)n2)n1` [Compound 89, 4-(ethyl(6-(N-(6-(2-isopropylphenyl)-5-(trifluoromethyl)pyridin-2-yl)sulfamoyl)pyridin-2-yl)amino)butanoic Acid], for which the 50% effective concentration (EC50) stood at 970 nM. With `Cc1ccccc1-c1nc(NS(=O)(=O)c2cccc(N(CCC(=O)O)C(C)C)n2)ccc1C(F)(F)F` [Compound 91, 3-(isopropyl(6-(N-(6-(o-tolyl)-5-(trifluoromethyl)pyridin-2-yl)sulfamoyl)pyridin-2-yl)amino)propanoic Acid], the concentration giving a half-maximal response (EC50) amounted to 1670 nM. As for `Cc1ccccc1-c1nc(NS(=O)(=O)c2cccc(N3CCCCC3CCC(=O)O)n2)ccc1C(F)(F)F` (stereo not drawn) [Compound 98, 3-(1-(6-(N-(6-(o-tolyl)-5-(trifluoromethyl)pyridin-2-yl)sulfamoyl)pyridin-2-yl)piperidin-2-yl)propanoic Acid], the EC50 was determined as 1540 nM.

As to `CCc1ccc(F)cc1-c1nc(NS(=O)(=O)c2cccc(N(CCCCC(=O)O)C(C)C)n2)ccc1C(F)(F)F` [Compound 99, 5-((6-(N-(6-(2-ethyl-5-fluorophenyl)-5-(trifluoromethyl)pyridin-2-yl)sulfamoyl)pyridin-2-yl)(isopropyl)amino)pentanoic Acid], the concentration for a half-maximal effect (EC50) was 1330 nM. In the case of `Cc1ccc(F)cc1-c1nc(NS(=O)(=O)c2cccc(N(CCCCC(=O)O)C(C)C)n2)ccc1C(F)(F)F` [Compound 100, 5-((6-(N-(6-(5-fluoro-2-methylphenyl)-5-(trifluoromethyl)pyridin-2-yl)sulfamoyl)pyridin-2-yl)(isopropyl)amino)pentanoic Acid], the EC50 was determined as 2490 nM. Consider `Cc1ccccc1-c1nc(NS(=O)(=O)c2cccc(N(CCCCC(=O)O)C(C)C)n2)ccc1C(F)(F)F` [Compound 101, 5-(isopropyl(6-(N-(6-(o-tolyl)-5-(trifluoromethyl)pyridin-2-yl)sulfamoyl)pyridin-2-yl)amino)pentanoic Acid], for which the EC50 was determined as 1590 nM. As to `Cc1ccc(F)cc1-c1nc(NS(=O)(=O)c2cccc(N(CCCC(=O)O)CC3CC3)n2)ccc1C(F)(F)F` [Compound 104, 4-((cyclopropylmethyl)(6-(N-(6-(5-fluoro-2-methylphenyl)-5-(trifluoromethyl)pyridin-2-yl)sulfamoyl)pyridin-2-yl)amino)butanoic Acid], the EC50 is 1280 nM. Turning to `CCN(CCC(=O)O)c1cccc(S(=O)(=O)Nc2ccc(C(F)(F)F)c(-c3cc(F)ccc3C3CC3)n2)n1` [Compound 111, 3-((6-(N-(6-(2-cyclopropyl-5-fluorophenyl)-5-(trifluoromethyl)pyridin-2-yl)sulfamoyl)pyridin-2-yl)(ethyl)amino)propanoic Acid], the EC50 stood at 1780 nM. Turning to `CCCCN(CCCC(=O)O)c1cccc(S(=O)(=O)Nc2ccc(Cl)c(-c3cccnc3C(C)C)n2)n1` [Compound 112, 4-(butyl(6-(N-(3-chloro-2′-isopropyl-[2,3′-bipyridin]-6-yl)sulfamoyl)pyridin-2-yl)amino)butanoic Acid], the concentration for a half-maximal effect (EC50) came out at 1570 nM. As to `CCc1ccc(F)cc1-c1nc(NS(=O)(=O)c2cccc(N(CCC(=O)O)C3CC3)n2)ccc1C(F)(F)F` [Compound 113, 3-(cyclopropyl(6-(N-(6-(2-ethyl-5-fluorophenyl)-5-(trifluoromethyl)pyridin-2-yl)sulfamoyl)pyridin-2-yl)amino)propanoic Acid], the EC50 amounted to 1770 nM and the Emax was determined as 715%.
